What was measured:
[1] = molecular target: T1, HCV NS5B RNA polymerase GT 3a L159F (Hepatitis C virus genotype 3a, UniProt Q81258, L2589F); assay: NS5B enzyme assay, GT 3a L159F; assay type: biochemical; conditions: NS5B enzyme GT 3a L159F; average of two to three replicates ± SD
T1 construct: The 21-amino-acid C-terminal truncated HCV NS5B RNA polymerase; His6; made in house
Protocol: The 21-amino-acid C-terminal truncated HCV NS5B RNA polymerase can be cloned from the HCV replicon cells, modified with a six-His-terminal tail, expressed in a prokaryotic expression vector (pQE60; Qiagen), and subsequently purified over a Talon cobalt affinity resin column (Clontech, Palo Alto, Calif.).^1 Purification can be monitored by SDS-PAGE and Western blotting. The resulting purified protein can be dialyzed overnight against 50 mM sodium phosphate (pH 8.0)-300 mM sodium chloride-0.5% Triton X-100-50% glycerol-2 mM dithiothreitol. […] Protein can be quantified with the Coomassie Plus protein assay reagent (Pierce) by using a bovine serum albumin standard from the same supplier.

[2] = molecular target: human mitochondrial RNA polymerase (POLRMT) (Homo sapiens, UniProt O00411); assay: In vitro human mitochondrial RNA polymerase (POLRMT) incorporation assay; conditions: 100 μM rNTP, 2 hr, normalized to natural rNTP
Protocol: 125 nM of POLRMT was incubated with 500 nM of 5′-radiolabled RNA/DNA hybrid, 10 mM MgCl2 and 100 μM of the corresponding nucleoside triphosphate. For non-nucleoside analogs, 100 μM of inhibitor was added at the same time as 100 μM UTP. Incorporation was allowed to proceed for 2 h at 30° C. and reactions were stopped by the addition of 10 mM EDTA and formamide. Samples were visualized on 20% denaturing polyacrylamide gel. Data were analyzed by normalizing the product fraction for each nucleoside triphosphate analog to that of the corresponding natural nucleoside triphosphate.
100 μM of each rNTP was incubated with POLRMT enzyme and the appropriate DNA/RNA primer/template hybrid and incorporation was evaluated at 2 hr. Nucleoside triphosphate analog incorporation was normalized to that of natural rNTP substrates.

[3] = molecular target: HCV NS5B RNA polymerase GT 3a WT; assay: NS5B enzyme assay, GT 3a WT; assay type: biochemical; conditions: NS5B enzyme GT 3a WT; average of two to three replicates ± SD
Protocol: The 21-amino-acid C-terminal truncated HCV NS5B RNA polymerase can be cloned from the HCV replicon cells, modified with a six-His-terminal tail, expressed in a prokaryotic expression vector (pQE60; Qiagen), and subsequently purified over a Talon cobalt affinity resin column (Clontech, Palo Alto, Calif.).^1 Purification can be monitored by SDS-PAGE and Western blotting. The resulting purified protein can be dialyzed overnight against 50 mM sodium phosphate (pH 8.0)-300 mM sodium chloride-0.5% Triton X-100-50% glycerol-2 mM dithiothreitol. The dialysate maintains consistent activity for more than 6 months when stored at −20° C. Protein can be quantified with the Coomassie Plus protein assay reagent (Pierce) by using a bovine serum albumin standard from the same supplier.
NS5B RNA polymerase reaction can be studied by monitoring the incorporation of ^32P-labeled UMP into the newly synthesized RNA strand by using minus IRES as the template. […] After the membrane is rinsed with water followed by rinsing with ethanol, the dots can be cut out and the radioactivity counted in a Packard liquid scintillation counter. The amount of product can be calculated on the basis of the total radioactivity in the reaction mixture. The rate of the reaction can be determined from the slope of the time course of product formation. […]

human mitochondrial RNA polymerase (POLRMT), sequence (O00411 42-1230): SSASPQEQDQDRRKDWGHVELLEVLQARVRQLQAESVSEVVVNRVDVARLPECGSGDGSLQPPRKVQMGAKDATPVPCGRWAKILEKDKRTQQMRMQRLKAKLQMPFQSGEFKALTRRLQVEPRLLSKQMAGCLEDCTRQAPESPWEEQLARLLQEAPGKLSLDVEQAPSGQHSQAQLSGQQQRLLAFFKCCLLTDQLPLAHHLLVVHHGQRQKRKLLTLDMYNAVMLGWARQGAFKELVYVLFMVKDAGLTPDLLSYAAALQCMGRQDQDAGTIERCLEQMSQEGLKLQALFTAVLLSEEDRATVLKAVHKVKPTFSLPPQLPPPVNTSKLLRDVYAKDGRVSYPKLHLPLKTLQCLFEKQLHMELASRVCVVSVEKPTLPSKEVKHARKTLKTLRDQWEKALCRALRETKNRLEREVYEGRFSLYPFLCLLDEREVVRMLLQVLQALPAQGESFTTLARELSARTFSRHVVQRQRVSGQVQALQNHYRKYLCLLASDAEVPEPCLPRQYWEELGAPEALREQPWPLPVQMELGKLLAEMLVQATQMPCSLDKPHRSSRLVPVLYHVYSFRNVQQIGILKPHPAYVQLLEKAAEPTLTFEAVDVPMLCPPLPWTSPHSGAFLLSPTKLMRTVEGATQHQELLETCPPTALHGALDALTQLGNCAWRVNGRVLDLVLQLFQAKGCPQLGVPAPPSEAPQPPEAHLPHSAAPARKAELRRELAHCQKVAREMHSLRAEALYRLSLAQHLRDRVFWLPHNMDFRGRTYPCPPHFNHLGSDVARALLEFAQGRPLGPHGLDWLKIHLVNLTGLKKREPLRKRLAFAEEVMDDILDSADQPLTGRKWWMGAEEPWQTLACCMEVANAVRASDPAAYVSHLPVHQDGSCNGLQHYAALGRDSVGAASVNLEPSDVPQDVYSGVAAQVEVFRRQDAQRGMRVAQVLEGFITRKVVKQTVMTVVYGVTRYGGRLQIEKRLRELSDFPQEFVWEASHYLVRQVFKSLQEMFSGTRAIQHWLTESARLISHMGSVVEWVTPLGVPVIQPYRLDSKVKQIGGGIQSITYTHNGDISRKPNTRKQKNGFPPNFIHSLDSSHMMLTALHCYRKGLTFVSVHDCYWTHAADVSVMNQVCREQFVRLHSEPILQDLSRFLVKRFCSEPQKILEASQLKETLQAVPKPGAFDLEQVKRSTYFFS
T1 sequence (Q81258 2431-3000 L2589F): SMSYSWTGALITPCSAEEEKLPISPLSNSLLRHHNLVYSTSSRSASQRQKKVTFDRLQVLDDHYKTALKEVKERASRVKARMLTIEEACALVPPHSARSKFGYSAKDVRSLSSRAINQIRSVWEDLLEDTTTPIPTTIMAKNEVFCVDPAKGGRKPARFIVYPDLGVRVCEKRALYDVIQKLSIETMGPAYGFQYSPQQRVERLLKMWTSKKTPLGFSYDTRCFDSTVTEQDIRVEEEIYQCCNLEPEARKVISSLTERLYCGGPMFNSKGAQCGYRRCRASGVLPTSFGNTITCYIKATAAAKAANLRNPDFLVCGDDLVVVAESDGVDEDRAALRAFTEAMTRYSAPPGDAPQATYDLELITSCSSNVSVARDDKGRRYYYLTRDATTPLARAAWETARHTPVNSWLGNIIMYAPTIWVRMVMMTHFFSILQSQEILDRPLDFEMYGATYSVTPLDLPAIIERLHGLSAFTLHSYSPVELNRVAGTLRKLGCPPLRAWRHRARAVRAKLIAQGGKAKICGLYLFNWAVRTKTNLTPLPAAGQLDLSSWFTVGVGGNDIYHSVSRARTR

C[C@@]1(F)[C@H](O)[C@@H](COP(=O)(O)OP(=O)(O)OP(=O)(O)O)O[C@H]1n1ccc(=O)[nH]c1=O [2′-Me-2′-F-UTP] was tested, and the EC50 [1] was 5.2 ± 1.4 µM, the “incorporation by POLRMT as compared to natural UTP” value [2] was 3.1% and the EC50 [3] was 7.2 ± 2.1 µM.
